Measurements from ChEMBL document CHEMBL2385054, “Lead optimization of a 4-aminopyridine benzamide scaffold to identify potent, selective, and orally bioavailable TYK2 inhibitors” (J Med Chem, 2013).
Converted amounts (≈) assume the structure as drawn.

Key:
in vitro [1] = conditions: rat, liver microsomes
in vitro [2] = conditions: mouse, plasma
in vivo [3] = conditions: CD1, mouse, po, 5 mg/kg
in vitro [4] = conditions: dog, MDCK
in vivo [5] = conditions: Sprague-Dawley, rat, plasma, iv, 1 mg/kg
in vivo [6] = conditions: CD1, mouse, iv, 1 mg/kg
in vivo [7] = conditions: Sprague-Dawley, rat
in vivo [8] = conditions: Sprague-Dawley, rat, iv, 1 mg/kg
in vitro [9] = conditions: rat, plasma
in vitro [10] = conditions: dog, MDCK; remark: listed apart in the source
in vivo [11] = conditions: CD1, mouse
in vitro [12] = conditions: human, liver microsomes
physchem [13] = conditions: octanol/aqueous buffer, pH 7.4
in vitro [14] = conditions: mouse, liver microsomes
in vivo [15] = conditions: CD1, mouse, plasma, po, 5 mg/kg
in vivo [16] = conditions: CD1, mouse, plasma, iv, 1 mg/kg
in vivo [17] = conditions: CD1, mouse, plasma, iv, 1 mg/kg; remark: listed apart in the source
in vivo [18] = conditions: Sprague-Dawley, rat, po, 5 mg/kg
in vitro [19] = conditions: human, plasma
in vitro [20] = conditions: human, liver microsomes; remark: listed apart in the source
in vivo [21] = conditions: CD1, mouse, plasma, po, 100 mg/kg
Homo sapiens = species: Homo sapiens; conditions: 180 nM
[22] = molecular target: Tyrosine-protein kinase Lck (Homo sapiens) (UniProt P06239); conditions: 180 nM
Tyrosine-protein kinase Lck (Homo sapiens), sequence (P06239 2-509 limits assumed): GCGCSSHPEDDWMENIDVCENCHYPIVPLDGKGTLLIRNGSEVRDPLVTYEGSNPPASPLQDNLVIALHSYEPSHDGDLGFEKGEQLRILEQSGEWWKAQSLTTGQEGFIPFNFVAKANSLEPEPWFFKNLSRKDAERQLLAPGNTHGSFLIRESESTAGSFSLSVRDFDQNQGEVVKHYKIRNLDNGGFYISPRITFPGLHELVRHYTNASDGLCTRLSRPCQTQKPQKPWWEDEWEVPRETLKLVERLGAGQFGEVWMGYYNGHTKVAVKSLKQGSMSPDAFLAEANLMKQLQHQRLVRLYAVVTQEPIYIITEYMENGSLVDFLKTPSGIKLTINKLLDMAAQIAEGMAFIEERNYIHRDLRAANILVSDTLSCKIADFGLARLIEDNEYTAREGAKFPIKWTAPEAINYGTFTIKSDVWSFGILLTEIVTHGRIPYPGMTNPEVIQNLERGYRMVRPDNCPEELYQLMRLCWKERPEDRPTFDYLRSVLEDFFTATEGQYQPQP

[23] = molecular target: Ribosomal protein S6 kinase alpha-6 (Homo sapiens) (UniProt Q9UK32); conditions: 180 nM
Ribosomal protein S6 kinase alpha-6 (Homo sapiens), sequence (Q9UK32 whole entry): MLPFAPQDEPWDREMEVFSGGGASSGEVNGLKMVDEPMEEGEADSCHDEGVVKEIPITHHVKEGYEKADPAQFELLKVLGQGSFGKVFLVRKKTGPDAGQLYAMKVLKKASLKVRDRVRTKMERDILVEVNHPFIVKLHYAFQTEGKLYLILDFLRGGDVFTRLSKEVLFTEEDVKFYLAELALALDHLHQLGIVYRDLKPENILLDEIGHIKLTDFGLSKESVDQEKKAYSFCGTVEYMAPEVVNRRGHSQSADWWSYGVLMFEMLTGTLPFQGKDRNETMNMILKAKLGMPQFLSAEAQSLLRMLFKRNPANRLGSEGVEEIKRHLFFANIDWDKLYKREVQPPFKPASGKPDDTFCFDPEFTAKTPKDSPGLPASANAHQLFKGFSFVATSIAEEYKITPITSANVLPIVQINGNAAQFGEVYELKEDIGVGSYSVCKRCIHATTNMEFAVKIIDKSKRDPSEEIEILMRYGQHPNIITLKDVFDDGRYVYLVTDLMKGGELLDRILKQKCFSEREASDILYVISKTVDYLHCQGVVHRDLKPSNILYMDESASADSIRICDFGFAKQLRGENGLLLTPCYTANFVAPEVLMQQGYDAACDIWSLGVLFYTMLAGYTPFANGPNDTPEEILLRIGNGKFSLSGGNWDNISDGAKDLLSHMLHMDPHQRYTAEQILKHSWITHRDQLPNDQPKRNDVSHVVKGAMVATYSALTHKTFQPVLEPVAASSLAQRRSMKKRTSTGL

[24] = molecular target: Ribosomal protein S6 kinase alpha-3 (Homo sapiens) (UniProt P51812); conditions: 180 nM
Ribosomal protein S6 kinase alpha-3 (Homo sapiens), sequence (P51812 whole entry): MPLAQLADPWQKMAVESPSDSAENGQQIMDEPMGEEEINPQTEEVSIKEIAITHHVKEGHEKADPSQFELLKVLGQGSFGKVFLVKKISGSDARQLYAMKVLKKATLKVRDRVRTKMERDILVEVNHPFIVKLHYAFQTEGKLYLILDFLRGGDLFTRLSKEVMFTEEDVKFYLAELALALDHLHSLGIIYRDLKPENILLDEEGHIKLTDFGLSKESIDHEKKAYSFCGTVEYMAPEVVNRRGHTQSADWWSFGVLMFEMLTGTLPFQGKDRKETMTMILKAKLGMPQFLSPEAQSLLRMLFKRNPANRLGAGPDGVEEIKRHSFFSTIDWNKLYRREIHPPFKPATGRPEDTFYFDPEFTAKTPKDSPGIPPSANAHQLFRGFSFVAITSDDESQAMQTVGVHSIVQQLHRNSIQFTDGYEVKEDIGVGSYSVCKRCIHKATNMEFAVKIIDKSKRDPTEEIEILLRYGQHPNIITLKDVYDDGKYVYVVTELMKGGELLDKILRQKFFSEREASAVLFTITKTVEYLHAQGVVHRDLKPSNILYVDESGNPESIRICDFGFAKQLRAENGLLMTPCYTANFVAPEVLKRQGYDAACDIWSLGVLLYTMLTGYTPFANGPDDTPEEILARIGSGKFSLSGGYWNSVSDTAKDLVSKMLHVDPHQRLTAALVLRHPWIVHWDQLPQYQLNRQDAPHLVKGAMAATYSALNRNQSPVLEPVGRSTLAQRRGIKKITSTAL

physchem [25] = conditions: PBS buffer, pH 7.4
[26] = molecular target: Ribosomal protein S6 kinase alpha-2 (Homo sapiens) (UniProt Q15349); conditions: 180 nM
Ribosomal protein S6 kinase alpha-2 (Homo sapiens), sequence (Q15349 whole entry): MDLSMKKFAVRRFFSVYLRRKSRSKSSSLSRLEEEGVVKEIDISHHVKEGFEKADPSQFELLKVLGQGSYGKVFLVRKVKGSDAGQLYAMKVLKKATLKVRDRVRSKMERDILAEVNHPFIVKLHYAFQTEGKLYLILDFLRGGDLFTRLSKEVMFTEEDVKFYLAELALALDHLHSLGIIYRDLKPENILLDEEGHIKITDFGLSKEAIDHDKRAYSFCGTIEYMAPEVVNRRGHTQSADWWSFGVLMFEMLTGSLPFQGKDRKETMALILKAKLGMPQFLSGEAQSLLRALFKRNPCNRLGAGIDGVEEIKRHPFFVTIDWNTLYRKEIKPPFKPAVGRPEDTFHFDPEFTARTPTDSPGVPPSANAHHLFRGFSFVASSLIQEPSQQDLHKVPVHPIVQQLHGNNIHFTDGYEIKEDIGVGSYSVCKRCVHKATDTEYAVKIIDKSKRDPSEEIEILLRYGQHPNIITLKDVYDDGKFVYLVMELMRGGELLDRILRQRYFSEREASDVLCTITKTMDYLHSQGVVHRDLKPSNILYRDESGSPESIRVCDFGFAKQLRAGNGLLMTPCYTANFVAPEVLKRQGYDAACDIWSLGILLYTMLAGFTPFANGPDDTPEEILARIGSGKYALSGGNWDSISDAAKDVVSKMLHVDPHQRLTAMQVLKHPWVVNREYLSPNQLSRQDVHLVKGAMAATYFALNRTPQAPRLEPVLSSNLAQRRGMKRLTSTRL

in vivo [27] = conditions: CD1, mouse, po, 100 mg/kg
[28] = molecular target: Cyclin-dependent kinase 5 (Homo sapiens) (UniProt Q00535); conditions: 180 nM
Cyclin-dependent kinase 5 (Homo sapiens), sequence (Q00535 whole entry, looked up): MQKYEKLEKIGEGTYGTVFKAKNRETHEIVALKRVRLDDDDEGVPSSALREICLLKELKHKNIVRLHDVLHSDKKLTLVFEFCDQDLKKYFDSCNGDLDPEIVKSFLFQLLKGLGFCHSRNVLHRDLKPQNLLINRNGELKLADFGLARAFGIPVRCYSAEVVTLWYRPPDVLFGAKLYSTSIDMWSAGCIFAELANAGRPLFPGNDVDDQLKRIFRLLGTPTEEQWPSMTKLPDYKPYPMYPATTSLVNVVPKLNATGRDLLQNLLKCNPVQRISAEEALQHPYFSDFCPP

Mus musculus [29] = species: Mus musculus; assay: animal or person; conditions: C57BL/6, po, read-out: INH
Mus musculus [30] = species: Mus musculus; assay: animal or person; conditions: C57BL/6, po, read-out: INH; remark: listed apart in the source
Mus musculus [31] = species: Mus musculus; assay: animal or person; conditions: C57BL/6, po, read-out: INH; remark: listed apart in the source
Mus musculus [32] = species: Mus musculus; assay: animal or person; conditions: C57BL/6, po, read-out: INH; remark: listed apart in the source

Row | SMILES | CLhep predicted (in vitro [1]) | fraction unbound (in vitro [2]) | efflux ratio (in vitro [4]) | clearance (in vivo [5]) | half-life (in vivo [7]) | Vd (in vivo [8]) | fraction unbound (in vitro [9]) | Papp A→B (in vitro [10]) | CLhep predicted (in vitro [12]) | logD (physchem [13]) | CLhep predicted (in vitro [14]) | bioavailability (in vivo [18]) | fraction unbound (in vitro [19]) | AUC (in vivo [21]) | solubility (physchem [25]) | Cmax (in vivo [27]) | also measured
1 | O=C(Nc1ccnc(NC(=O)C2CC2)c1)c1c(Cl)cc(-c2nnc[nH]2)cc1Cl |  |  |  |  |  |  |  |  |  |  |  |  |  |  | 2 µg/mL (≈ 4.79 µM) |  | 
2 | N#Cc1cc(Cl)c(C(=O)Nc2ccnc(NC(=O)[C@H]3C[C@H]3F)c2)c(Cl)c1 | 10 mL/min/kg | 0.017 | 1.5 | 4.6 mL/min/kg | 4.1 h | 1 L/kg | 0.082 | 12 ×10⁻⁶ cm/s | 11 mL/min/kg | 2.8 | 36 mL/min/kg | 100% | 0.068 | 1090 µM·h | 74 µg/mL (≈ 188 µM) | 143 µM | 
3 | O=C(Nc1ccnc(NC(=O)C2CC2)c1)c1c(Cl)cc(-c2cn[nH]c2)cc1Cl |  |  |  |  |  |  |  |  |  |  |  |  |  |  | 1 µg/mL (≈ 2.4 µM) |  | 
4 | N#Cc1cc(F)c(C(=O)Nc2ccnc(NC(=O)[C@H]3C[C@H]3F)c2)c(Cl)c1 | 11 mL/min/kg | 0.05 | 1.5 | 1 mL/min/kg | 40 h | 2.3 L/kg | 0.09 | 11 ×10⁻⁶ cm/s | 8 mL/min/kg | 2.5 | 34 mL/min/kg | 70% | 0.134 | 917 µM·h | 53 µg/mL (≈ 141 µM) | 108 µM | inhibition in vivo at 30 mg/kg (Mus musculus [29]): 72%; inhibition in vivo at 70 mg/kg (Mus musculus [30]): 88%; inhibition in vivo at 100 mg/kg (Mus musculus [31]): 77%; inhibition in vivo at 10 mg/kg (Mus musculus [32]): 60%

Now from value to compound, other results behind:

Row | CLhep predicted (in vitro [1]) | fraction unbound (in vitro [2]) | efflux ratio (in vitro [4]) | clearance (in vivo [5]) | half-life (in vivo [7]) | Vd (in vivo [8]) | fraction unbound (in vitro [9]) | Papp A→B (in vitro [10]) | CLhep predicted (in vitro [12]) | logD (physchem [13]) | CLhep predicted (in vitro [14]) | bioavailability (in vivo [18]) | fraction unbound (in vitro [19]) | AUC (in vivo [21]) | solubility (physchem [25]) | Cmax (in vivo [27]) | SMILES | also measured
5 | 16 mL/min/kg | 0.044 | 0.4 | 21 mL/min/kg | 1.2 h | 1.1 L/kg | 0.041 | 30 ×10⁻⁶ cm/s | 7 mL/min/kg | 3.4 | 64 mL/min/kg | 100% | 0.049 |  |  |  | O=C(Nc1ccnc(NC(=O)C2CC2)c1)c1c(Cl)cccc1Cl | bioavailability (in vivo [3]): 73%; Vd (in vivo [6]): 0.6 L/kg; half-life (in vivo [11]): 0.3 h; AUC (in vivo [15]): 2.6 µM·h; clearance (in vivo [16]): 65 mL/min/kg; clearance (in vivo [17]): 65 mL/min/kg
6 | 12 mL/min/kg | 0.032 | 1 | 3.1 mL/min/kg | 4.2 h | 0.8 L/kg | 0.059 | 15 ×10⁻⁶ cm/s | 8 mL/min/kg | 3.2 | 38 mL/min/kg | 86% | 0.022 | 818 µM·h | 64 µg/mL (≈ 171 µM) | 119 µM | N#Cc1cc(Cl)c(C(=O)Nc2ccnc(NC(=O)C3CC3)c2)c(Cl)c1 | metabolised (in vitro [20]): < 2%; bioavailability (in vivo [3]): 100%; inhibition (Homo sapiens): 68%; inhibition [22]: 61%; inhibition [23]: 80%; Vd (in vivo [6]): 0.9 L/kg; inhibition [24]: 73%; half-life (in vivo [11]): 1 h; inhibition [26]: 80%; inhibition [28]: 61%; clearance (in vivo [17]): 13 mL/min/kg
7 | 20 mL/min/kg | 0.036 | 0.4 | 39 mL/min/kg | 0.5 h | 1.2 L/kg | 0.122 | 30 ×10⁻⁶ cm/s | 4 mL/min/kg |  | 64 mL/min/kg | 100% | 0.066 |  | 28 µg/mL (≈ 79.6 µM) |  | O=C(Nc1ccnc(NC(=O)[C@H]2C[C@H]2F)c1)c1c(F)cccc1Cl | 
8 | 21 mL/min/kg | 0.018 | 0.8 | 15 mL/min/kg | 1.8 h | 1 L/kg | 0.048 | 20 ×10⁻⁶ cm/s | 11 mL/min/kg | 2.9 | 55 mL/min/kg | 100% | 0.025 | 50 µM·h | 126 µg/mL (≈ 342 µM) | 47 µM | O=C(Nc1ccnc(NC(=O)[C@H]2C[C@H]2F)c1)c1c(Cl)cccc1Cl | 
